# * marks the point of attachment. Palmitoyl = CCCCCCCCCCCCCCCC(=O)*
# Columns and labels:
# hyaluronic acid [1] = assay: Hyaluronic acid ELISA in culture supernatant of NHDF; type: cell-based, human; settings: 72 h
# Source text: For the interpretation of the data related to the stimulation of the formation of extracellular matrix components as determined during the in vitro experiments, a “significant” stimulation of the formation of extracellular matrix components means a stimulation of at least 20% more than measured using a control material under identical experimental conditions. The control material is the identical material (here: assay medium) as used when testing the active (here: peptide(s)) but without the active(s).
# Normal human dermal fibroblasts (NHDF); used at the 8th passage, were cultured in culture medium (DMEM supplemented with 10% fetal calf serum, 2 mM L-glutamine, 50 U/ml penicillin, and 50 μg/ml streptomycin) in 96-well plates for 24 h at 37° C. and 5% CO2.
# Afterwards, the culture medium was removed and replaced by assay medium (DMEM culture medium supplemented with 2% fetal calf serum, 2 mM L-glutamine, 50 U/ml penicillin, and 50 μg/ml streptomycin) containing the test peptides or not (control). The cells were then incubated for 72 h. All experimental conditions were performed 3-times (n=3). At the end of the incubation, culture supernatants were collected and immediately frozen at about −80° C.
# Hyaluronic acid was quantified in the culture supernatant using the Duoset Hylaluronan ELISA kit (R&D Systems Ref. DY3614, 0.37 ng/ml as low detection limit) according to the provider's specifications.
# This evaluation was realized with non-cytotoxic concentrations of the test peptides. Cytotoxicity of the test peptides in the assay medium was previously determined in NHDF by the MTT reduction assay and morphological observations with help of microscope after a 72 h incubation time.
# human skin explants = settings: 3H-proline-incorporation; cited from earlier work
# rat experimental wounds = settings: cited from earlier work
# collagen III (alpha 1) = assay: RT-qPCR gene expression in NHDF: collagen III (alpha 1); type: cell-based, human; settings: 24 h, vs control; for stimulation of formation of collagen III (alpha 1) (mRNA, RT-qPCR): 300 ppm (0.03%)
# Method: (§1) Normal human dermal fibroblasts (NHDF); used at the 8th passage, were cultured in culture medium (DMEM supplemented with 10% fetal calf serum, 2 mM L-glutamine, 50 U/ml penicillin, and 50 μg/ml streptomycin) in 24-well plates for 48 h at 37° C. and 5% CO2 with a renewal of culture medium after 24 h. The culture medium was then removed, replaced by assay medium (DMEM culture medium supplemented with 1% fetal calf serum, 2 mM L-glutamine, 50 U/ml penicillin, and 50 μg/ml streptomycin) and the cells were further incubated for 24 h. The cells were then treated with the test peptides, or not (control), or with the reference TGF-beta 1 and incubated for 24 h. All experimental conditions were performed 4-times (n=4). At the end of the incubation, the cells were washed in PBS solution and immediately frozen at about −80° C. The expression of the markers was analyzed using quantitative real time polymerase chain reaction (RT-qPCR) method on mRNA extracted from the cell monolayers for each treatment; whereby the replicates were pooled before RNA extraction. Analysis of gene expression was performed in duplicate (n=2) using a PCR array. Total RNA was extracted from each sample using TriPure Isolation Reagent® according to the supplier's instructions. The amount and quality of RNA were evaluated using a lab-on-a-chip Bioanalyzer (Agilent Technologies). […] Quantification of cDNA was performed using Nanovue (GE Healthcare) and cDNA was adjusted. […]
# (§2) The incorporation of the fluorescence in amplified DNA was continuously measured during the PCR cycles. […] The value selected for RE calculations is the “output point” (Ct) of the fluorescence curve. For a considered marker, the highest is the cycle number; the lowest is the mRNA quantity. […]
# (§3) This evaluation was realized with non-cytotoxic concentrations of the test peptides. Cytotoxicity of the test peptides in the assay medium was previously determined in NHDF by the MTT reduction assay and morphological observations with help of microscope after a 24 h incubation time. […]
# collagen I (alpha 1) = assay: RT-qPCR gene expression in NHDF: collagen I (alpha 1); type: cell-based, human; settings: 24 h, vs control; for stimulation of formation of collagen I (alpha 1) (mRNA, RT-qPCR): 300 ppm (0.03%)
# Method: as §1, §2, §3
# hyaluronic acid [2] = settings: oil-in-water vehicle containing 50 ppm GEKG for sixty days; cited from earlier work
# collagen V (alpha 1) = assay: RT-qPCR gene expression in NHDF: collagen V (alpha 1); type: cell-based, human; settings: 300 ppm (0.03%), 24 h, vs control
# Method: as §1, with “All experimental conditions were performed 4-times (n=4). At the end of the incubation, the cells were washed in PBS solution and immediately frozen at about −80° C.” left out, “Analysis of gene expression was performed in duplicate (n=2) using a PCR array. Total RNA was extracted from each sample using TriPure Isolation Reagent® according to the supplier's instructions.” left out
# as §2
# laminin (alpha 4) = assay: RT-qPCR gene expression in NHDF: laminin (alpha 4); type: cell-based, human; settings: 300 ppm (0.03%), 24 h, vs control
# Method: as §1, with “All experimental conditions were performed 4-times (n=4). At the end of the incubation, the cells were washed in PBS solution and immediately frozen at about −80° C.” left out, “Analysis of gene expression was performed in duplicate (n=2) using a PCR array. Total RNA was extracted from each sample using TriPure Isolation Reagent® according to the supplier's instructions.” left out
# as §2
# collagen VII (alpha 1) = assay: RT-qPCR gene expression in NHDF: collagen VII (alpha 1); type: cell-based, human; settings: 300 ppm (0.03%), 24 h, vs control
# Method: as §1, with “All experimental conditions were performed 4-times (n=4). At the end of the incubation, the cells were washed in PBS solution and immediately frozen at about −80° C.” left out, “Analysis of gene expression was performed in duplicate (n=2) using a PCR array. Total RNA was extracted from each sample using TriPure Isolation Reagent® according to the supplier's instructions.” left out
# as §2
# fibrillin 1 = assay: RT-qPCR gene expression in NHDF: fibrillin 1; type: cell-based, human; settings: 300 ppm (0.03%), 24 h, vs control
# Method: as §1, with “All experimental conditions were performed 4-times (n=4). At the end of the incubation, the cells were washed in PBS solution and immediately frozen at about −80° C.” left out, “Analysis of gene expression was performed in duplicate (n=2) using a PCR array. Total RNA was extracted from each sample using TriPure Isolation Reagent® according to the supplier's instructions.” left out
# as §2
# elastin = assay: RT-qPCR gene expression in NHDF: elastin; type: cell-based, human; settings: 300 ppm (0.03%), 24 h, vs control
# Method: as §1, with “All experimental conditions were performed 4-times (n=4). At the end of the incubation, the cells were washed in PBS solution and immediately frozen at about −80° C.” left out, “Analysis of gene expression was performed in duplicate (n=2) using a PCR array. Total RNA was extracted from each sample using TriPure Isolation Reagent® according to the supplier's instructions.” left out
# as §2
# collagen VI (alpha 1) = assay: RT-qPCR gene expression in NHDF: collagen VI (alpha 1); type: cell-based, human; settings: 300 ppm (0.03%), 24 h, vs control
# Method: as §1, with “All experimental conditions were performed 4-times (n=4). At the end of the incubation, the cells were washed in PBS solution and immediately frozen at about −80° C.” left out, “Analysis of gene expression was performed in duplicate (n=2) using a PCR array. Total RNA was extracted from each sample using TriPure Isolation Reagent® according to the supplier's instructions.” left out
# as §2
# hyaluronan synthase 2 = assay: RT-qPCR gene expression in NHDF: hyaluronan synthase 2; type: cell-based, human; settings: 300 ppm (0.03%), 24 h, vs control
# Method: as §1, with “All experimental conditions were performed 4-times (n=4). At the end of the incubation, the cells were washed in PBS solution and immediately frozen at about −80° C.” left out, “Analysis of gene expression was performed in duplicate (n=2) using a PCR array. Total RNA was extracted from each sample using TriPure Isolation Reagent® according to the supplier's instructions.” left out
# as §2
# [3] = tested on: heparan sulfate protoglycan 2; assay: RT-qPCR gene expression in NHDF: heparan sulfate protoglycan 2; type: cell-based, human; settings: 300 ppm (0.03%), 24 h, vs control
# Method: as §1, with “All experimental conditions were performed 4-times (n=4). At the end of the incubation, the cells were washed in PBS solution and immediately frozen at about −80° C.” left out, “Analysis of gene expression was performed in duplicate (n=2) using a PCR array. Total RNA was extracted from each sample using TriPure Isolation Reagent® according to the supplier's instructions.” left out
# as §2
# collagen XVI (alpha 1) = assay: RT-qPCR gene expression in NHDF: collagen XVI (alpha 1); type: cell-based, human; settings: 300 ppm (0.03%), 24 h, vs control
# Method: as §1, with “All experimental conditions were performed 4-times (n=4). At the end of the incubation, the cells were washed in PBS solution and immediately frozen at about −80° C.” left out, “Analysis of gene expression was performed in duplicate (n=2) using a PCR array. Total RNA was extracted from each sample using TriPure Isolation Reagent® according to the supplier's instructions.” left out
# as §2
# collagen I = settings: ELISA, normal human dermal fibroblasts; cited from earlier work
# collagen III = settings: immunofluorescence, normal human dermal fibroblasts; cited from earlier work
compound,measurement,setting,value
Palmitoyl-Gly-His-Lys-OH [Palmitoyl-GHK],stimulation of synthesis of hyaluronic acid,hyaluronic acid [1]; alone at 10 or 30 ppm,up to 11%
same,increase of collagen synthesis,human skin explants,up to 75.3%
GHK-Cu,collagen accumulation,rat experimental wounds,statistical significant increase of collagen accumulation
NCCC(=O)N[C@@H](Cc1cnc[nH]1)C(=O)O [beta-alanyl-histidine],"stimulation of formation of collagen III (alpha 1) (mRNA, RT-qPCR)",collagen III (alpha 1),24%
same,"stimulation of formation of collagen I (alpha 1) (mRNA, RT-qPCR)",collagen I (alpha 1),28%
Gly-His-Lys [GHK],collagen accumulation,rat experimental wounds,no effect
NH2-Gly-Glu-Lys-Gly-OH (H-GEKG-OH),hyaluronic acid formation,hyaluronic acid [2],stimulate hyaluronic acid formation
same,stimulation of synthesis of hyaluronic acid,hyaluronic acid [1]; alone at 100 or 300 ppm,up to 25%
"CCCCCCCC(=O)NCCC(=O)NC(Cc1cnc[nH]1)C(=O)O (stereo not drawn) [Octanoyl Carnosine, Octanoyl-beta-Ala-His-OH]","stimulation of formation of collagen V (alpha 1) (mRNA, RT-qPCR)",collagen V (alpha 1),35%
same,stimulation of synthesis of hyaluronic acid,hyaluronic acid [1]; alone at 100 pm,−5%
same,"stimulation of formation of laminin (alpha 4) (mRNA, RT-qPCR)",laminin (alpha 4),20%
same,"stimulation of formation of collagen VII (alpha 1) (mRNA, RT-qPCR)",collagen VII (alpha 1),97%
same,"stimulation of formation of collagen III (alpha 1) (mRNA, RT-qPCR)",collagen III (alpha 1),120%
same,"stimulation of formation of fibrillin 1 (mRNA, RT-qPCR)",fibrillin 1,23%
same,"stimulation of formation of collagen I (alpha 1) (mRNA, RT-qPCR)",collagen I (alpha 1),38%
same,"stimulation of formation of elastin (mRNA, RT-qPCR)",elastin,51%
same,"stimulation of formation of collagen VI (alpha 1) (mRNA, RT-qPCR)",collagen VI (alpha 1),46%
same,"stimulation of formation of hyaluronan synthase 2 (mRNA, RT-qPCR)",hyaluronan synthase 2,23%
same,"stimulation of formation of heparan sulfate protoglycan 2 (mRNA, RT-qPCR)",[3],79%
same,"stimulation of formation of collagen XVI (alpha 1) (mRNA, RT-qPCR)",collagen XVI (alpha 1),91%
TGF-beta 1: reference TGF-beta 1 (10 ng/ml) in the gene expression test,"stimulation of formation of collagen III (mRNA, RT-qPCR)",collagen III (alpha 1); 10 ng/ml,164%
same,"stimulation of formation of collagen I (mRNA, RT-qPCR)",collagen I (alpha 1); 10 ng/ml,245%
palmitoyl-KMO2K—OH,increase of collagen I formation,collagen I,111%
same,increase of collagen III formation,collagen III,104%

# Source: patent publication US10543195B2, “Peptides for skin rejuvenation and methods of using the same” (Anteis SA, priority 2013, dated 2020)
